Patent US11179397B2, “Imidazopyrimidine derivatives” (Gilead Sciences, Inc., priority 2018, dated 2021)

What was measured:
[1] = target: SHP-2 full length protein (Homo sapiens (Human), UniProt Q06124); assay: SHP-2 biochemical DiFMUP pseudosubstrate-fluorogenic assay; conditions: 0.2 nM SHP-2, 1 μM IRS-1 activator peptide, 50 μM DiFMUP; read-out: SHP2 IC50
Method: SHP-2 Biochemical Assay Materials Recombinant SHP-2 full length protein was generated in house. SHP-2 protein tyrosine phosphatase (PTP) domain protein (Catalog number SPR0217-20 ug), NaCl (Catalog number S6546-1L), and KCl (Catalog number 60142-500 mL) were purchased from Sigma-Aldrich (St. Louis, Mo.). IRS-1_[…](dPEG8)[…] peptide […]) was custom made by AnaSpec (Fremont, Calif.). DiFMUP substrate (Catalog number D6567), EDTA (Catalog number E177-500 mL), DTT (Catalog number P2325), and 384-well black polystyrene non-binding surface (Catalog number 3820) were purchased from Fisher Scientific (Hanover Park, Ill.). HEPES (Catalog number 15630-080) was purchased from Life Technologies (Pleasanton, Calif.), and Tween-20 (Catalog number 95059-250) was purchased from VWR (Radnor, Pa.). Method Inhibition of SHP-2 activity by small molecule inhibitors was monitored by a biochemical DiFMUP pseudosubstrate-fluorogenic assay. […] The reaction mix was added to the 384-well non-binding plate which had been pre-spotted with 1:3 serial diluted compounds from 10,000-0.005 nM, and incubated at room temperature for 90 min. DiFMUP substrate at final concentration of 50 μM was then added to the wells and incubated for additional 30 min at room temperature. The final reaction volume was 20 μl/well. […] The inhibitor dose response curves were generated using normalized IC50 regression curve fitting by in house dose response analysis tools. The wells with DMSO vehicle were used as controls (100% signal). The percent (%) control of SHP-2 compound was calculated as: (Compound well fluorescence counts/DMSO fluorescence counts)×100%.

[2] = system: NCI-H358 cells; assay: NCI-H358 3D tumor spheroid growth inhibition; format: cell-based; conditions: Homo sapiens, NCI-H358, 168 h, 3D spheroids, 7 days, 3D CellTiter Glo; cellular IC50 designated EC50; read-out: H358 EC50
Source text: SHP-2 Cell Based Assay: […] Materials NCI-H358 cell line was purchased from [NT] number ATCC CRL-5807) (Manassas, Va.). RPMI-1640 (Catalog number 10-040-CM) was from Corning Cellgro (Manassas, Va.), Fetal Bovine Serum (FBS) (Catalog number SH30071.03) was from HyClone (Logan, Utanh), and 100× Penicillin/Streptomycin/L-Glutamine stock (Catalog no. 30-009-CI) and 384-well ULA plates (Catalog number 3830) were from Corning (Fremont, Calif.). Method […] At the day of assay, the cells were trypsinized and seeded at 1000 cells/70 μl/well in 384-well ULA plates and incubated at 37° C. incubator with 5% CO2 to allow spheroids to form. […] The plates were incubated for additional 7 days. Then 35 μl of medium from each well was removed, and replaced with 35 μl of 3D CellTiter Glo reagent from Promega. The wells were mixed by pipetting up and down with Biomek FX for 15 times to induce cell lysis and the plates were incubated at room temperature for additional 10 min to stabilize luminescent signal. The luminescence was then read by Envision. The inhibitor dose response curves were generated using normalized cellular IC50 (designated as EC50 in all FIGURES to distinguish from biochemical IC50s) by in house dose response analyses tools. The wells with DMSO vehicle were used as negative controls (0% inhibition). The % inhibition of SHP-2 compounds was calculated as: 100-[(Compound well luminescence counts/DMSO luminescence counts)×100%].

SHP-2 full length protein, sequence (Q06124 whole entry): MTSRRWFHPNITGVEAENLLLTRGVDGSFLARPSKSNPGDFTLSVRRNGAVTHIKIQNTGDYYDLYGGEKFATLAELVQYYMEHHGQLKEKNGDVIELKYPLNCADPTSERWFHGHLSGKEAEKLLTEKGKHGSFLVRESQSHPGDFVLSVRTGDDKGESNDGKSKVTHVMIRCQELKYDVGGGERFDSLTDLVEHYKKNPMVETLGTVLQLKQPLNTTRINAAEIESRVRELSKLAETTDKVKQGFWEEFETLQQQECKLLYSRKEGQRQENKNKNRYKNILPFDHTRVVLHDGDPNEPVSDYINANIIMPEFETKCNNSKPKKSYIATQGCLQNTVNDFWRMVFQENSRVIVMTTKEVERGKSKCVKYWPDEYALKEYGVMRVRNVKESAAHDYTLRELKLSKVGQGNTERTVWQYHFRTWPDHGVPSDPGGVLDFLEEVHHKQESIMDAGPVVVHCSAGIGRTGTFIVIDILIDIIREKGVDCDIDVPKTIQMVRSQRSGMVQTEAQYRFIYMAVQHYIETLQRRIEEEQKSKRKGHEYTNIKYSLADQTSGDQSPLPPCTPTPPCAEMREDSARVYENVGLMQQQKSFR

SMILES | IC50 [1] [nM] | EC50 [2] [nM]
Nc1nccc(Sc2cnc(N3CCC4(CCC[C@H]4N)CC3)n3ccnc23)c1Cl [Example 45, (R)-8-(8-((2-amino-3-chloropyridin-4-yl)thio)imidazo[1,2-c]pyrimidin-5-yl)-8-azaspiro[4.5]decan-1-amine] | 5.6 | 170
N[C@@H]1CCCC12CCN(c1ncc(Sc3ccnc(Cl)c3Cl)c3nccn13)CC2 [Example 46, (R)-8-(8-((2,3-dichloropyridin-4-yl)thio)imidazo[1,2-c]pyrimidin-5-yl)-8-azaspiro[4.5]decan-1-amine] | 3.1 | 31
Cc1nccc(Sc2cnc(N3CCC4(CCC[C@H]4N)CC3)n3ccnc23)c1Cl [Example 47, (R)-8-(8-((3-chloro-2-methylpyridin-4-yl)thio)imidazo[1,2-c]pyrimidin-5-yl)-8-azaspiro[4.5]decan-1-amine] | 7.6 | 150
CC1(N)CCN(c2ncc(Sc3cccc(Cl)c3Cl)c3nccn23)CC1 [Example 48, 1-(8-((2,3-dichlorophenyl)thio)imidazo[1,2-c]pyrimidin-5-yl)-4-methylpiperidin-4-amine] | 120 | 1700
N[C@@H]1CCCC12CCN(c1ncc(-c3cccc(Cl)c3Cl)c3nccn13)CC2 [Example 52, (R)-8-(8-(2,3-dichlorophenyl)imidazo[1,2-c]pyrimidin-5-yl)-8-azaspiro[4.5]decan-1-amine] | 280 | > 12500
C[C@@H]1OCC2(CCN(c3ncc(Sc4cccc(Cl)c4Cl)c4nccn34)CC2)[C@@H]1N [Example 55, (3S,4S)-8-(8-((2,3-dichlorophenyl)thio)imidazo[1,2-c]pyrimidin-5-yl)-3-methyl-2-oxa-8-azaspiro[4.5]decan-4-amine] | 1.5 | 49
NC1CCCN(c2ncc(Sc3cccc(Cl)c3Cl)c3nccn23)CC1 (stereo not shown) [Example 56, 1-(8-((2,3-dichlorophenyl)thio)imidazo[1,2-c]pyrimidin-5-yl)azepan-4-amine] | 75 | 990
Clc1cccc(Sc2cnc(N3CCC4(CCCCN4)CC3)n3ccnc23)c1Cl [Example 57, 9-(8-((2,3-dichlorophenyl)thio)imidazo[1,2-c]pyrimidin-5-yl)-1,9-diazaspiro[5.5]undecane] | 500 | > 12500
NC1CC2(CCN(c3ncc(Sc4cccc(Cl)c4Cl)c4nccn34)C2)C1 (stereo not shown) [Example 58, 6-(8-((2,3-dichlorophenyl)thio)imidazo[1,2-c]pyrimidin-5-yl)-6-azaspiro[3.4]octan-2-amine] | 340 | 4400
CC1(N)CCN(c2ncc(Sc3cccc(Cl)c3Cl)c3nncn23)CC1 [Example 61, 1-(8-((2,3-dichlorophenyl)thio)-[1,2,4]triazolo[4,3-c]pyrimidin-5-yl)-4-methylpiperidin-4-amine] | 130 | 2300
CC1(N)CCN(c2ncc(Sc3cccc(Cl)c3Cl)c3ncnn23)CC1 [Example 62, 1-(8-((2,3-dichlorophenyl)thio)-[1,2,4]triazolo[1,5-c]pyrimidin-5-yl)-4-methylpiperidin-4-amine] | 1300 | > 12500
Nc1nccc(Sc2cnc(N3CCC4(CCC[C@H]4N)CC3)n3cnnc23)c1Cl [Example 63, (R)-8-(8-((2-amino-3-chloropyridin-4-yl)thio)-[1,2,4]triazolo[4,3-c]pyrimidin-5-yl)-8-azaspiro[4.5]decan-1-amine] | 13 | 580
Cc1nc(N2CCC3(CCC[C@H]3N)CC2)n2cnnc2c1-c1cnc(N)c(Cl)c1Cl [Example 66, (R)-8-(8-(6-amino-4,5-dichloropyridin-3-yl)-7-methyl-[1,2,4]triazolo[4,3-c]pyrimidin-5-yl)-8-azaspiro[4.5]decan-1-amine] | 140 | 2900
Cc1nc(N2CCC3(CC2)CO[C@@H](C)[C@H]3N)n2cnnc2c1-c1cccc(Cl)c1Cl [Example 67, (3S,4S)-8-(8-(2,3-dichlorophenyl)-7-methyl-[1,2,4]triazolo[4,3-c]pyrimidin-5-yl)-3-methyl-2-oxa-8-azaspiro[4.5]decan-4-amine] | 6.4 | 100
Cc1nc(N2CCC3(CC2)C[C@@H](O)C[C@H]3N)n2cnnc2c1-c1cccc(Cl)c1Cl [Example 68, (2R,4R)-4-amino-8-(8-(2,3-dichlorophenyl)-7-methyl-[1,2,4]triazolo[4,3-c]pyrimidin-5-yl)-8-azaspiro[4.5]decan-2-ol] | 9.4 | 440
N[C@@H]1CCCC12CCN(c1nc(Cl)c(-c3cccc(Cl)c3Cl)c3nccn13)CC2 [Example 69, (R)-8-(7-chloro-8-(2,3-dichlorophenyl)imidazo[1,2-c]pyrimidin-5-yl)-8-azaspiro[4.5]decan-1-amine] | 3.1 | 86
N[C@@H]1CCCC12CCN(c1ncc(Sc3cncc4ccccc34)c3nccn13)CC2 [Example 70, (R)-8-(8-(isoquinolin-4-ylthio)imidazo[1,2-c]pyrimidin-5-yl)-8-azaspiro[4.5]decan-1-amine] | 670 | 3900
C[C@@H]1OCC2(CCN(c3ncc(Oc4cccc(Cl)c4Cl)c4nccn34)CC2)[C@@H]1N [Example 71, (3S,4S)-8-(8-(2,3-dichlorophenoxy)imidazo[1,2-c]pyrimidin-5-yl)-3-methyl-2-oxa-8-azaspiro[4.5]decan-4-amine] | 120 | 1400
N[C@@H]1CCCC12CCN(c1ncc(Nc3cccc(Cl)c3Cl)c3nccn13)CC2 [Example 72, (R)-8-(8-((2,3-dichlorophenyl)amino)imidazo[1,2-c]pyrimidin-5-yl)-8-azaspiro[4.5]decan-1-amine] | 2000 | > 12500
Cc1nc(N2CCC3(CCC[C@H]3N)CC2)n2ccnc2c1-c1ccc2cn[nH]c2c1 [Example 73, (R)-8-(8-(1H-indazol-6-yl)-7-methylimidazo[1,2-c]pyrimidin-5-yl)-8-azaspiro[4.5]decan-1-amine] | 30 | 550
Cc1nc(N2CCC3(CCC[C@H]3N)CC2)n2ccnc2c1-c1ccc2c(c1)OC(F)(F)O2 [Example 74, (R)-8-(8-(2,2-difluorobenzo[d][1,3]dioxol-5-yl)-7-methylimidazo[1,2-c]pyrimidin-5-yl)-8-azaspiro[4.5]decan-1-amine] | 860 | > 12500
Cc1nc(N2CCC3(CC2)C[C@@H](O)C[C@H]3N)n2ccnc2c1Sc1cccc(Cl)c1Cl [Example 75, (2R,4R)-4-amino-8-(8-((2,3-dichlorophenyl)thio)-7-methylimidazo[1,2-c]pyrimidin-5-yl)-8-azaspiro[4.5]decan-2-ol] | 3.9 | 48
Cc1nc(N2CCC3(CC2)CO[C@@H](C)[C@H]3N)n2ccnc2c1Sc1cccc(Cl)c1Cl [Example 76, (3S,4S)-8-(8-((2,3-dichlorophenyl)thio)-7-methylimidazo[1,2-c]pyrimidin-5-yl)-3-methyl-2-oxa-8-azaspiro[4.5]decan-4-amine] | 3.3 | 59
N[C@@H]1CCCC12CCN(c1ncc(Sc3ccc4cn[nH]c4c3)c3nccn13)CC2 [Example 77, (R)-8-(8-((1H-indazol-6-yl)thio)imidazo[1,2-c]pyrimidin-5-yl)-8-azaspiro[4.5]decan-1-amine] | 180 | 3100
N[C@@H]1CCCC12CCN(c1ncc(Sc3ccnc4ccccc34)c3nccn13)CC2 [Example 78, (R)-8-(8-(quinolin-4-ylthio)imidazo[1,2-c]pyrimidin-5-yl)-8-azaspiro[4.5]decan-1-amine] | 5.9 | 95
N[C@@H]1CCCC12CCN(c1ncc(SC3CCCCC3)c3nccn13)CC2 [Example 79, (R)-8-(8-(cyclohexylthio)imidazo[1,2-c]pyrimidin-5-yl)-8-azaspiro[4.5]decan-1-amine] | 5300 | > 12500
